In brackets after ≈: the same amount, converted by molar mass. Entries after “also recorded” stand apart in the source; their conditions may differ. Read-outs that look alike come from different tables or passages of the source.
How the values were obtained:
[1] = in vitro, across all species; cited from earlier work
HIV‐1 = system: HIV‐1; design: method as in earlier work; conditions: cited from earlier work
[2] = Study 200912: single dose 100-200 mg, SDD versus nonmicronized API PiB, healthy subjects; format: in vivo, human; conditions: for Cmax / AUC / half-life / Tmax / concentration at 24 h: human, plasma, oral; for Cmax / AUC / half-life / Tmax / concentration at 24 h / CL/F: fasted; for Cmax / AUC / half-life / CL/F: geometric mean (95% CI); for AUC: read-out: AUC(0‐∞); for half-life: read-out: t½ (converted); for Tmax / concentration at 24 h: median (range); for concentration at 24 h: read-out: C24
Source text: This was a double‐blind, randomized, placebo‐controlled, single‐dose escalation study to investigate the safety, tolerability, and PK of higher single doses of GSK2838232 (Part A) and to evaluate the relative bioavailability of the SDD and crystalline Active Pharmaceutical Ingredient (API) of GSK2838232 (Part B) in healthy subjects dosed as PiB.
Part A was originally planned as a double‐blind, randomized, placebo‐controlled, 4‐period, single‐dose escalation design. Subjects were randomized 3:1 to receive GSK2838232 or placebo. Periods 1 and 2 investigated dosing with 200 mg SDD or nonmicronized API. Further planned dosing of RTV‐boosted single doses of 20 mg and 50 mg SDD was not performed due to early termination of the study to evaluate a serious adverse event (SAE) of a cardiovascular nature (see Safety discussion).
Part B was conducted in a separate group of subjects and was not dependent on the results of Part A. This was a randomized, open‐label, 3‐period, crossover design to assess the relative bioavailability of the nonmicronized API PiB versus the original SDD formulation at a 100 mg dose level (Periods 1 and 2). […] Subjects were randomized 1:1 to each dosing sequence.
Blood samples were taken via an indwelling cannula or by direct venipuncture, collected into a di‐potassium ethylenediaminetetraacetic acid (K2 EDTA) tube, and placed on wet ice. Samples were centrifuged at approximately 1500g for 10 minutes at approximately 4°C. Exactly 500 μL of the resulting plasma was transferred into labeled 1.4 mL Matrix TrakMate Tubes containing exactly 500 μL of 50 mmol/L citrate buffer, pH 4.0, and mixed well. When 500 μL of plasma was not able to be transferred, the ratio of plasma to citrate buffer was kept at 1:1. Buffered plasma samples were kept on ice and frozen at −70°C within 1 hour of collection. Plasma samples were analyzed for GSK2838232 using a validated analytical method based on protein precipitation, followed by high performance liquid chromatography with tandem mass spectrometry (HPLC/MS/MS) analysis.
Extracts were analyzed using HPLC (Shimadzu, Nexera, 30 series) and tandem mass spectrometry detection (HPLC‐MS/MS). The mass spectrometer used was an API‐5500 using IonSpray interface (500 V) in positive mode monitoring. The mass transitions were 809.5 to 255.1 and 816.5 to 262.1 for GSK2838232 and [2H7] GSK2838232 (the isotopically labeled internal standard), respectively. The chromatographic conditions utilized a Waters Acquity UPLC BEH C18 column (50 × 2.1 mm, 1.7 μm) with mobile phases consisting of 1 mmol/L ammonium formate:formic acid (100:0.005) (mobile phase A) and acetonitrile:formic acid (100:0.1) (mobile phase B) at a flow rate of 0.6 mL/min, with pump B at 63% held for 2 minutes. The assay was validated to have precision (%RSD) of 0.7%‐6.5% (within‐run) and 1.0%‐5.9% RSD (between‐run) and with accuracy (%bias) of 0.0%‐1.6%. […] The lower limit of quantification (LLQ) was 0.5 ng/mL, using a 50 μL aliquot of K2EDTA acidified plasma. The higher limit of quantification (HLQ) was 500 ng/mL.
The PK parameters were calculated by standard noncompartmental analysis based on actual sampling times using WinNonlin Version 6.3 or higher. Estimation of AUC used the linear up/log down trapezoidal rule.

[3] = Safety and tolerability in healthy subjects across the four Phase I studies; format: in vivo, human
Description: Each one of the four studies described were conducted and completed at a single center in the United States (Parexel International, Baltimore, MD) per the ethical principles of “good clinical practice” (GCP) and the Declaration of Helsinki after obtaining a written informed consent from each subject. The protocols and amendments were approved by Aspire Investigational Review Board (Santee, California, USA).
Other screening assessments included 24‐hour Holter monitoring and baseline echocardiograms.
Nonclinical evaluation in short duration toxicology studies initially gave rise to potential cardiovascular signals which were minimal, appeared sporadically, and were not reproduced in longer term studies. Consequently, there was intensive and extensive cardiovascular monitoring at baseline and post‐dosing, including continuous Holter monitoring and regular cardiac troponin laboratory assessments in these early Phase I studies along with a high degree of vigilance for any findings and/or reported AEs of potential cardiovascular origin.

[4] = 20 mg, single 20 mg API PiB, with ritonavir (predosing 10 days), Study 200912
[5] = 100 mg, single 100 mg API PiB, without ritonavir, Study 200912
[6] = 100 mg, single 100 mg SDD PiB, without ritonavir, Study 200912
[7] = 200 mg, single 200 mg API PiB, without ritonavir, Study 200912
[8] = 200 mg, single 200 mg SDD PiB, without ritonavir, Study 200912

CC(C)C1=C2[C@H]3CC[C@@H]4[C@@]5(C)CC[C@H](OC(=O)CC(C)(C)C(=O)O)C(C)(C)[C@@H]5CC[C@@]4(C)[C@]3(C)CC[C@@]2([C@@H](O)CN(CCN(C)C)Cc2ccc(Cl)cc2)CC1=O [GSK2838232]
plasma protein binding [1]: > 99.9% | shift in IC90 with human serum albumin added (HIV‐1; assays to which human serum albumin was added): no significant shift | IC90 in cell‐based assays (termed PA‐IC90, protein‐adjusted 90% inhibitory concentration) (HIV‐1; calculated): 5 ng/mL (≈ 6.18 nM) | IC90 (HIV‐1; calculated, read-out: IC90 in cell‐based assays): 6.4 nM | activity to viruses with key resistance mutations (HIV‐1; panel of viruses): retains activity | dose proportionality of exposure ([2]; API, 100 mg to 200 mg single doses, Study 200912): proportional increase in exposure | Cmax [2, 4]: 4.89 ng/mL | AUC [2, 4]: 224 ng·h/mL | half-life [2, 4]: 41.1 h | Tmax [2, 4]: 5.01 h | concentration at 24 h [2, 4]: 2.56 ng/mL | Cmax [2, 5]: 6.15 ng/mL | AUC [2, 5]: 91.7 ng·h/mL | half-life [2, 5]: 12.5 h | Tmax [2, 5]: 3.64 h | concentration at 24 h [2, 5]: 2.02 ng/mL | Cmax [2, 6]: 18.7 ng/mL | AUC [2, 6]: 265 ng·h/mL | half-life [2, 6]: 16.9 h | Tmax [2, 6]: 2.75 h | concentration at 24 h [2, 6]: 3.87 ng/mL | Cmax [2, 7]: 13.6 ng/mL | AUC [2, 7]: 189 ng·h/mL | half-life [2, 7]: 15.9 h | Tmax [2, 7]: 2.76 h | concentration at 24 h [2, 7]: 2.85 ng/mL | Cmax [2, 8]: 29.3 ng/mL | AUC [2, 8]: 381 ng·h/mL | half-life [2, 8]: 16.6 h | Tmax [2, 8]: 1.75 h | concentration at 24 h [2, 8]: 5.18 ng/mL | CL/F ([2]; single 20 mg API PiB, with ritonavir (predosing 10 days), Study 200912): 89.2 (63.3, 126) L/h | CL/F ([2]; single 100 mg API PiB, without ritonavir, Study 200912): 1090 (670, 1774) L/h | CL/F ([2]; single 100 mg SDD PiB, without ritonavir, Study 200912): 378 (256, 559) L/h | CL/F ([2]; single 200 mg API PiB, without ritonavir, Study 200912): 1060 (686, 1638) L/h | CL/F ([2]; single 200 mg SDD PiB, without ritonavir, Study 200912): 525 (399, 690) L/h | dose proportionality of exposure ([2]; single doses 100 mg to 200 mg, SDD formulation, without RTV): less‐than‐proportional increase | cardiovascular toxicities / events related to study drug ([3]; healthy subjects): no cardiovascular toxicities were deemed related to study drug administration; also recorded: none were considered definitively related to GSK2838232 | adverse events ([3]; healthy subjects, all dose regimens, up to 250 mg): few mild adverse events (AEs) with similar frequencies to placebo; also recorded: Few adverse events (AEs) were reported across all dose regimens | drug‐related AEs ([3]; healthy subjects, four studies): no clearly identified drug‐related AEs | changes in hematology or clinical chemistry laboratory values, including liver function tests ([3]; healthy subjects, exception one subject with gallstones (not treatment‐related)): no clinically significant changes | AEs assessed with a reasonable likelihood of being drug‐related ([3]; infrequently reported): headache and dizziness | safety and tolerability ([3]; single doses up to 250 mg with 100 mg RTV, repeat doses up to 200 mg with 100 mg RTV for 11 days): good safety and tolerability profile

Source: article PMC5989765, “The safety, tolerability, and pharmacokinetic profile of GSK2838232, a novel 2nd generation HIV maturation inhibitor, as assessed in healthy subjects” (Pharmacology Research & Perspectives, 2018)
